Assay results taken from patent US8410112B2, “Compounds useful as inhibitors of ATR kinase” (Vertex Pharmaceuticals Incorporated, priority 2008, dated 2013).

Target: T1, full-length ATR (Homo sapiens, UniProt Q13535)
T1 construct: in the presence of 5 nM full-length ATR
Test: ATR Inhibition Assay (radioactive-phosphate incorporation)
Format: biochemical
Conditions: Ki(app); 5 nM full-length ATR, 10 μM ATP, 800 μM target peptide, 25° C.
How it was run: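 Buffer was 50 mM Tris/HCl pH 7.5, 10 mM MgCl2, 1 mM DTT, with 5 nM enzyme, 10 μM [γ-33P]ATP and 800 μM target peptide at 25 °C. Compound was pre-incubated 10 min before ATP start, and the reaction was stopped after 24 h. Phosphocellulose filter capture; Ki(app) came from non-linear regression of background-corrected initial rates.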

T1 sequence (Q13535 whole entry): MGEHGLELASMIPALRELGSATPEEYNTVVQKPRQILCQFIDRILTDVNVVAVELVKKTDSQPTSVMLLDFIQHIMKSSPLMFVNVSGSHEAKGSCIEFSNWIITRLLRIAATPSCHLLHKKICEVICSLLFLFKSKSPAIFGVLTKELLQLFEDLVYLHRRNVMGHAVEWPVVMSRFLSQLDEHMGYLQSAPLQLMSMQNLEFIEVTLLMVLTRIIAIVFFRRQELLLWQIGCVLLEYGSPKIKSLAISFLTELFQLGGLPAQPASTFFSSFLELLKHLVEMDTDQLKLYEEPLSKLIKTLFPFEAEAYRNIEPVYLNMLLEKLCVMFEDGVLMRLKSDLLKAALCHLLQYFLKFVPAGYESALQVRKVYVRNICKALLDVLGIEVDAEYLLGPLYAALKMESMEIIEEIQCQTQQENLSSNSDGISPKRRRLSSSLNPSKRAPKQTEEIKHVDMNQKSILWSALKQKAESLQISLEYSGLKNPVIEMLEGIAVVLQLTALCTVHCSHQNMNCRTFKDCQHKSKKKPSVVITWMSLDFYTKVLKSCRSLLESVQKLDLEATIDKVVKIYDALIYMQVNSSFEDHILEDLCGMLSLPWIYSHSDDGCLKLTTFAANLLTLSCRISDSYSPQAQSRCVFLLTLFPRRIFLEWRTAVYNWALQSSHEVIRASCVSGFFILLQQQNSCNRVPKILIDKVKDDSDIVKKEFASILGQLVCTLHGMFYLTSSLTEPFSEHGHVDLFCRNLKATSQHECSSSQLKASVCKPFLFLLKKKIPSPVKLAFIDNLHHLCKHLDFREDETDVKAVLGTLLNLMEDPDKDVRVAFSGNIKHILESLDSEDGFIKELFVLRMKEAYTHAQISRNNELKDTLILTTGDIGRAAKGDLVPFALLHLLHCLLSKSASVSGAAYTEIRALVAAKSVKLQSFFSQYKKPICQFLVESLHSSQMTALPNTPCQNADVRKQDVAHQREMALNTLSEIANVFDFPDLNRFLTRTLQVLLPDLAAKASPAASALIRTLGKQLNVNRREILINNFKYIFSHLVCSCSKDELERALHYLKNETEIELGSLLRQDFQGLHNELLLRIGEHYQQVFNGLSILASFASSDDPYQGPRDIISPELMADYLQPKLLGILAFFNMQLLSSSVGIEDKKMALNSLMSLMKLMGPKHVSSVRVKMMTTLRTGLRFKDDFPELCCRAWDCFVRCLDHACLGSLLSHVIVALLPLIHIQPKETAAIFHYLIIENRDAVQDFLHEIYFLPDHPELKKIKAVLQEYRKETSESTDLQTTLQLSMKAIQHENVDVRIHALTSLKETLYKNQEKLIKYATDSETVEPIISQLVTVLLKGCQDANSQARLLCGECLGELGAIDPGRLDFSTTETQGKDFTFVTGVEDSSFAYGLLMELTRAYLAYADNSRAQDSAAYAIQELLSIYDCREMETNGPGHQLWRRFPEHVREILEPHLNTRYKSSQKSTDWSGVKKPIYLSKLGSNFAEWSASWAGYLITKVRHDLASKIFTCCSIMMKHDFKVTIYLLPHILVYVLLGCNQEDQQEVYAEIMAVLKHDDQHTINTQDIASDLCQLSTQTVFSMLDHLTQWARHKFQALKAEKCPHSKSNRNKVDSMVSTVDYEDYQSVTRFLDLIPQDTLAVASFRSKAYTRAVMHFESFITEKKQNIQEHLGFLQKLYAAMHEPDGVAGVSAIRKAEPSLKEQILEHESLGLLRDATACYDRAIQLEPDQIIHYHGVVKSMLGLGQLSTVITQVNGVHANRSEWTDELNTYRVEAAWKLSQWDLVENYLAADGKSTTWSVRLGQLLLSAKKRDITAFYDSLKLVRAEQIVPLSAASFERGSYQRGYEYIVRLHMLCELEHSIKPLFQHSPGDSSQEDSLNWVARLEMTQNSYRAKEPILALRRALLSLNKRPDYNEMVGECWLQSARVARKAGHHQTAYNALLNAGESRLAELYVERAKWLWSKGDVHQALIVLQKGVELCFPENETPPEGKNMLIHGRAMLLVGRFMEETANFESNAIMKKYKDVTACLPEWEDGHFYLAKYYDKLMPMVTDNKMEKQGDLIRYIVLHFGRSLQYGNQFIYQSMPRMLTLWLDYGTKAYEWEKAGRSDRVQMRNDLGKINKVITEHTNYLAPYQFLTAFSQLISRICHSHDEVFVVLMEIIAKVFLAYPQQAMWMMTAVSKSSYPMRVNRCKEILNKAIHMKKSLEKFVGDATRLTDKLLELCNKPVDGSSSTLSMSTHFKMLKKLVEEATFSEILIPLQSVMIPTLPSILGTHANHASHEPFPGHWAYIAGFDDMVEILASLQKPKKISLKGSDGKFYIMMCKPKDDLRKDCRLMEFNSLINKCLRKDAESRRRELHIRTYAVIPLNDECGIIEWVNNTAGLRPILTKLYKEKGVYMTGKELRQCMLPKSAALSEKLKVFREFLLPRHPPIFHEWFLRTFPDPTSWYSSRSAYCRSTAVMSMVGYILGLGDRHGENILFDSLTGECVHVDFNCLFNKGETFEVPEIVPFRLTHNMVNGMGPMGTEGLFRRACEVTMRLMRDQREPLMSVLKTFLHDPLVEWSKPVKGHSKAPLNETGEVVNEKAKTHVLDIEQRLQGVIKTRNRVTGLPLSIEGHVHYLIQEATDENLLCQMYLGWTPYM

Structure (SMILES)	Ki
Nc1ncc(-n2ccc(=O)cc2)nc1-c1nc2ccccc2[nH]1 [Compound I-311, 1-[5-amino-6-(1H-benzimidazol-2-yl)pyrazin-2-yl]pyridin-4-one]	< 100 nM
Nc1ncc(N2CC[C@H](N)C2)nc1-c1nc2ccccc2[nH]1 [Compound I-39, (S)-5-(3-aminopyrrolidin-1-yl)-3-(1H-benzo[d]imidazol-2-yl)pyrazin-2-amine]	1000 to 10000 nM
Nc1ncc(C2=CCN(C(=O)N3CCNCC3)CC2)nc1-c1nc2ccccc2[nH]1 [Compound I-280, (4-(5-amino-6-(1H-benzo[d]imidazol-2-yl)pyrazin-2-yl)-5,6-dihydropyridin-1(2H)-yl)(piperazin-1-yl)methanone]	100 to 1000 nM
Nc1ncc(N2CC[C@H](NC(=O)c3cccnc3)C2)nc1-c1nc2ccccc2[nH]1 [Compound I-188, (S)-N-(1-(5-amino-6-(1H-benzo[d]imidazol-2-yl)pyrazin-2-yl)pyrrolidin-3-yl)pyridine-3-carboxamide]	100 to 1000 nM
CCC(=O)N1CC=C(c2cnc(N)c(-c3nc4ccccc4[nH]3)n2)CC1 [Compound I-309, 1-[4-[5-amino-6-(1H-benzimidazol-2-yl)pyrazin-2-yl]-3,6-dihydro-2H-pyridin-1-yl]propan-1-one]	< 100 nM
CN(C)S(=O)(=O)N1CCN(c2cnc(N)c(-c3nc4ccccc4[nH]3)n2)CC1 [Compound I-88, 4-(5-amino-6-(1H-benzo[d]imidazol-2-yl)pyrazin-2-yl)-N,N-dimethylpiperazine-1-sulfonamide]	100 to 1000 nM
Nc1ncc(C2=CCNCC2)nc1-c1nc2ccccc2[nH]1 [Compound I-66, 3-(1H-benzo[d]imidazol-2-yl)-5-(1,2,3,6-tetrahydropyridin-4-yl)pyrazin-2-amine]	100 to 1000 nM
Nc1ncc(N2CC=C(c3nccs3)CC2)nc1-c1nnc(-c2ccccc2)o1 [Compound I-290, 3-(5-phenyl-1,3,4-oxadiazol-2-yl)-5-(4-thiazol-2-yl-3,6-dihydro-2H-pyridin-1-yl)pyrazin-2-amine]	100 to 1000 nM
CCC(=O)N(C)C1CCN(c2cnc(N)c(-c3nnc(-c4ccc(CNC)cc4)o3)n2)CC1 [Compound I-365, N-(1-(5-Amino-6-(5-(4-((methylamino)methyl)phenyl)-1,3,4-oxadiazol-2-yl)pyrazin-2-yl)piperidin-4-yl)-N-methylpropionamide]	100 to 1000 nM
CCS(=O)(=O)N1CCN(c2cnc(N)c(-c3nnc(-c4ccc(F)cc4)o3)n2)CC1 [Compound I-292, 5-(4-ethylsulfonylpiperazin-1-yl)-3-[5-(4-fluorophenyl)-1,3,4-oxadiazol-2-yl]pyrazin-2-amine]	100 to 1000 nM
COCC(=O)N1CCN(c2cnc(N)c(-c3nnc(-c4ccccc4)o3)n2)CC1 [Compound I-179, 1-(4-(5-amino-6-(5-phenyl-1,3,4-oxadiazol-2-yl)pyrazin-2-yl)piperazin-1-yl)-2-methoxyethanone]	100 to 1000 nM

Now from value to compound:

Ki	Structure (SMILES)
100 to 1000 nM	Nc1ncc(N2CCN(C(=O)C3CCCCC3)CC2)nc1-c1nc2ccccc2[nH]1 [Compound I-112, (4-(5-amino-6-(1H-benzo[d]imidazol-2-yl)pyrazin-2-yl)piperazin-1-yl)(cyclohexyl)methanone]
100 to 1000 nM	CCS(=O)(=O)NC1CC[C@H]2CN(c3cnc(N)c(-c4nnc(-c5ccc(CNC)cc5)o4)n3)C[C@@H]12 (stereo partly drawn) [Compound I-354, N-((3aS,6aR)-2-(5-Amino-6-(5-(4-((methylamino)methyl)phenyl)-1,3,4-oxadiazol-2-yl)pyrazin-2-yl)octahydrocyclopenta[c]pyrrol-4-yl)ethanesulfonamide]
1000 to 10000 nM	COCC(=O)N1CCN(c2cnc(N)c(C(=O)Nc3ccccn3)n2)CC1 [Compound I-147, 3-amino-6-(4-(2-methoxyethanoyl)piperazin-1-yl)-N-(pyridin-2-yl)pyrazine-2-carboxamide]
1000 to 10000 nM	COCCOCC(=O)N1CCN(c2cnc(N)c(C(=O)Nc3ccccn3)n2)CC1 [Compound I-151, 3-amino-6-(4-(2-(2-methoxyethoxy)ethanoyl)piperazin-1-yl)-N-(pyridin-2-yl)pyrazine-2-carboxamide]
1000 to 10000 nM	Nc1ncc(N2CCN(C(=O)N3CCCC3)CC2)nc1-c1nc2ccccc2[nH]1 [Compound I-267, (4-(5-amino-6-(1H-benzo[d]imidazol-2-yl)pyrazin-2-yl)piperazin-1-yl)(pyrrolidin-1-yl)methanone]
1000 to 10000 nM	CNC(=O)[C@@H]1CCN(c2cnc(N)c(-c3nc4ccc(C)cc4[nH]3)n2)C1 [Compound I-77, (R)-1-(5-amino-6-(6-methyl-1H-benzo[d]imidazol-2-yl)pyrazin-2-yl)-N-methylpyrrolidine-3-carboxamide]
100 to 1000 nM	Nc1ncc(N2CC[C@H](NC(=O)COc3ccccc3)C2)nc1-c1nc2ccccc2[nH]1 [Compound I-205, (S)-N-(1-(5-amino-6-(1H-benzo[d]imidazol-2-yl)pyrazin-2-yl)pyrrolidin-3-yl)-2-phenoxyethanamide]
100 to 1000 nM	CCS(=O)(=O)N1CCN(c2cnc(N)c(-c3nc4ccccc4n3C)n2)CC1 [Compound I-15, 5-(4-(ethylsulfonyl)piperazin-1-yl)-3-(1-methyl-1H-benzo[d]imidazol-2-yl)pyrazin-2-amine]
1000 to 10000 nM	COCCOCC(=O)N1CCN(c2cnc(N)c(-c3nc4ccccc4[nH]3)n2)CC1 [Compound I-264, 1-(4-(5-amino-6-(1H-benzo[d]imidazol-2-yl)pyrazin-2-yl)piperazin-1-yl)-2-(2-methoxyethoxy)ethanone]
< 100 nM	CCS(=O)(=O)N1CC=C(c2cnc(N)c(C(=O)Nc3cccnc3OC)n2)CC1 [Compound I-165, 3-amino-6-(1-(ethylsulfonyl)-1,2,3,6-tetrahydropyridin-4-yl)-N-(2-methoxypyridin-3-yl)pyrazine-2-carboxamide]
1000 to 10000 nM	CC(=O)N1CCN(c2cnc(N)c(C(=O)Nc3ccccn3)n2)CC1 [Compound I-142, 3-amino-6-(4-ethanoylpiperazin-1-yl)-N-(pyridin-2-yl)pyrazine-2-carboxamide]
100 to 1000 nM	CCNC(=O)C1CC1c1cnc(N)c(-c2nnc(-c3ccc(CNC)cc3)o2)n1 (centres unmarked) [Compound I-375, 2-[5-Amino-6-[5-[4-(methylaminomethyl)phenyl]-1,3,4-oxadiazol-2-yl]pyrazin-2-yl]-N-ethyl-cyclopropanecarboxamide]
100 to 1000 nM	CCC(=O)NC1[C@H]2CN(c3cnc(N)c(-c4nnc(-c5ccc(CNC)cc5)o4)n3)C[C@@H]12 (stereo partly drawn) [Compound I-358, N-[(1S,5R)-3-[5-amino-6-[5-[4-(methylaminomethyl)phenyl]-1,3,4-oxadiazol-2-yl]pyrazin-2-yl]-3-azabicyclo[3.1.0]hexan-6-yl]propanamide]
1000 to 10000 nM	Cc1ccc2nc(-c3nc(N4CCN(c5cccc(F)c5)CC4)cnc3N)[nH]c2c1 [Compound I-47, 5-(4-(3-fluorophenyl)piperazin-1-yl)-3-(6-methyl-1H-benzo[d]imidazol-2-yl)pyrazin-2-amine]
100 to 1000 nM	Nc1ncc(C2=CCN(C(=O)N3CCCNCC3)CC2)nc1-c1nc2ccccc2[nH]1 [Compound I-279, (4-(5-amino-6-(1H-benzo[d]imidazol-2-yl)pyrazin-2-yl)-5,6-dihydropyridin-1(2H)-yl)(1,4-diazepan-1-yl)methanone]
